Laboratory results as given in US20020165286A1, “Dermal anti-inflammatory composition” (priority 2000, published 2002).
Like-named read-outs stand apart in the source and are kept apart here.

Columns and labels:
[1] = cited from earlier work
[2] = cited from earlier work; remark: listed apart in the source
[3] = cited from earlier work; remark: listed apart in the source
[4] = cited from earlier work; remark: listed apart in the source
[5] = cited from earlier work; remark: listed apart in the source
rhino mouse = test: Rhino mouse study: comedolytic activity (number of utriculi, epidermal thickness); type: in vivo, rhino mice (RHJ/LeJ Rhino, hr^rh/hr^rh); details: test substance dissolved in ethanol only
Excerpt: The rhino mouse is an in vivo model for the study of hyperplastic and comedolytic potency of various drugs used in the treatment of acne. The rhino mouse has follicles on the skin. The orifices are distended with horny material and these structures resembles human microcomedones and are referred to as utriculi or pseudocomedones.
In the present study, the comedolytic activity and skin irritation potential of 3% w/v solutions of test substance (1) in different vehicles was studied in order to select a formulation suited for topical application. Selected commercial acne products were included in the study for the purpose of comparison.
105 female rhino mice (RHJ/LeJ Rhino, hr^rh/hr^rh) aged 6-9 weeks were obtained from M&B A/S, Denmark. The mice were placed in cages with free access to a commercial rodent diet (Altromin 1324) and tap water. […]
The mice were killed one day after the end of the treatment period and the dorsal skin was removed. […] These slices were evaluated under the microscope (Nikon LABOPHOT-2) for the number of epidermal utriculi and utriculi profile (×200) and the epidermal thickness (×400), and the mean value and standard deviation for each animal was estimated. […]

Compound | Comedolytic ([1]; topical administration) | Anti-inflam. ([2]; topical administration) | Potential irritant ([3]; topical administration) | Antibacterial ([4]; topical administration) | Teratogenic ([5]; topical administration) | Comedolytic ([1]; systemic administration) | Anti-inflam. ([2]; systemic administration) | Potential irritant ([3]; systemic administration) | Antibacterial ([4]; systemic administration) | Teratogenic ([5]; systemic administration) | reduction in the number of utriculi (rhino mouse)
O=C(O)CCCCCCCC(=O)O [Azelaic acid] | Yes | Maybe | Yes | Yes | No |  |  |  |  |  | 
O=C(OOC(=O)c1ccccc1)c1ccccc1 [Benzoyl peroxide] | Somewhat | Maybe | Yes | Yes |  |  |  |  |  |  | 
C[C@H]1c2cccc(O)c2C(O)=C2C(=O)[C@]3(O)C(O)=C(C(N)=O)C(=O)[C@@H](N(C)C)[C@@H]3[C@@H](O)[C@@H]21 [Doxycyclin] |  |  |  |  |  | No | Yes | No | Yes | Yes | 
CC1=C(/C=C/C(C)=C/C=C/C(C)=C\C(=O)O)C(C)(C)CCC1 [Isotretinoin] |  |  |  |  |  | Yes | Yes | Yes | Yes | Yes | 
CN(C)c1ccc(O)c2c1C[C@H]1C[C@H]3[C@H](N(C)C)C(O)=C(C(N)=O)C(=O)[C@@]3(O)C(O)=C1C2=O [Minocyclin] |  |  |  |  |  | No | Yes |  | Yes | Yes | 
CN(C)[C@@H]1C(=O)C(C(N)=O)=C(O)[C@@]2(O)C(=O)C3=C(O)c4c(O)cccc4[C@@](C)(O)[C@H]3C[C@@H]12 [Tetracyclin] |  |  |  |  |  | No | Yes | No | Yes | Yes | 
CC1=C(/C=C/C(C)=C/C=C/C(C)=C/C(=O)O)C(C)(C)CCC1 [Tretinoin] | Yes | No | Yes | No | Maybe |  |  |  |  |  | 
Cc1cc(F)ccc1Nc1ccc(C(=O)c2ccccc2C)c(Cl)c1 [test substance (1), 2-chloro-4-(4-fluoro-2-methyl-phenylamino)-2′-methylbenzophenone] |  |  |  |  |  |  |  |  |  |  | 51%
